Target: T1, PLK4 (Homo sapiens, UniProt O00444)
T1 construct: expressed in transfected cells; host or cells: HEK293 T cells (ATCC CRL-3216)
T1 sequence (O00444 1-970): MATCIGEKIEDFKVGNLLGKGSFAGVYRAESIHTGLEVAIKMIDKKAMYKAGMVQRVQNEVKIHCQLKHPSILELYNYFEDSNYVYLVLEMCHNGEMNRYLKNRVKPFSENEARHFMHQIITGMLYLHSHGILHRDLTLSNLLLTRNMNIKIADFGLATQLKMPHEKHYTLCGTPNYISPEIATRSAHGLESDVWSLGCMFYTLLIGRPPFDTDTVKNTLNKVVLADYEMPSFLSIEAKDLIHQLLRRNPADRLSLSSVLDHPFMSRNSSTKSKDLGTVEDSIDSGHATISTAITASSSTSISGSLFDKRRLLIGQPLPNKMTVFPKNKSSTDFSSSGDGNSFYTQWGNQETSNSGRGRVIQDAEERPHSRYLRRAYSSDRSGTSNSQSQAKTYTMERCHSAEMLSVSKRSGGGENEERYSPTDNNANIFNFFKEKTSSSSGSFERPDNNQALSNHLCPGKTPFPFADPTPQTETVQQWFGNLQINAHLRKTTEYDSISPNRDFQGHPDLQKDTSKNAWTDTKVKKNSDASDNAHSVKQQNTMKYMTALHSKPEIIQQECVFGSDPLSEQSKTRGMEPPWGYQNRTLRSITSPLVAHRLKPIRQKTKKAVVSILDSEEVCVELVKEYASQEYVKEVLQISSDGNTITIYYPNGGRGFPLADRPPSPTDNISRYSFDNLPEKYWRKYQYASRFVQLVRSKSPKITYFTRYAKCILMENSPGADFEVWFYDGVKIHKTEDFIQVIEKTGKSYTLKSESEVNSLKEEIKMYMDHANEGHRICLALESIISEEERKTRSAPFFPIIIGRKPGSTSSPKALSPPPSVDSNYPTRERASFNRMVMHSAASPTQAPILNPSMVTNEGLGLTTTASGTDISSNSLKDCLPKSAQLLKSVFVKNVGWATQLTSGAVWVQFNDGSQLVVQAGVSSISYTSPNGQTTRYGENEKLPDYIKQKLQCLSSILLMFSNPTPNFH
Test: PLK4 NanoBRET target engagement assay
Assay type: binding
Conditions: HEK293 T cells transfected with PLK4 NanoLuc fusion vector; K-5 tracer; 2 hrs incubation
Outline: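 HEK293T cells transiently expressing PLK4-NanoLuc, plated at 17000 cells/well with K-5 tracer and compound, incubated 2 h at 37 °C/5% CO2. After substrate/inhibitor mix, 610/450 nm emission ratio ×1000 gave mBRET; IC50 from 4-parameter fit.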

| Structure (SMILES) | IC50 [nM] |
| --- | --- |
| Cc1cc(Nc2nc(N(C)c3c(F)cc(C(=O)N4CCC4)cc3F)nc(-c3cn(C)cn3)c2C2CC2)n[nH]1 [Compound 359] | 65 |
| Cc1cc(Nc2nc(N(C)c3c(F)cc([N+](=O)[O-])cc3F)nc(-c3cn(C)cn3)c2C2CC2)n[nH]1 [Compound 360] | 10 |
| Cc1cc(Nc2nc(N(C)c3c(F)cc(CC(=O)N(C)C)cc3F)nc(-c3cn(C)cn3)c2C2CC2)n[nH]1 [Compound 361] | > 5000 |
| Cc1cc(Nc2nc(N(C)c3c(F)cc(C4(C#N)CC4)cc3F)nc(-c3cn(C)cn3)c2C2CC2)n[nH]1 [Compound 362] | 4 |
| Cc1cc(Nc2nc(N(C)c3c(F)cc(CC(=O)N4CCC4)cc3F)nc(-c3cn(C)cn3)c2C2CC2)n[nH]1 [Compound 363] | > 5000 |
| Cc1cc(Nc2nc(N(C)c3c(F)cc(CC(=O)N4CCOCC4)cc3F)nc(-c3cn(C)cn3)c2C2CC2)n[nH]1 [Compound 364] | > 5000 |
| Cc1cc(Nc2nc(N(C)c3c(F)cc(S(C)(=O)=O)cc3F)nc(-c3cn(C4CC(O)C4)nc3C)c2C2CC2)n[nH]1 (stereo not shown) [Compound 365] | 4 |

Source: patent publication US20250177396A1, “POLO-LIKE KINASE 4 (PLK4) INHIBITORS, PHARMACEUTICAL COMPOSITIONS, METHODS OF PREPARATION AND USES THEREOF” (Repare Therapeutics Inc., priority 2022, published 2025)
